From patent US5372944A, “Method for conversion of halogenated hydrocarbons to halohydrins” (The Dow Chemical Company, priority 1993, dated 1994)

What was measured:
[1] = tested on: dehalogenase in cell free extracts of Rhodococcus Rhodochrous, TDTM-003; assay: Primary screen of dehalogenase activity in cell free extracts of TDTM-003; assay type: biochemical
Procedure: Following overnight growth, 50 μl of 1-chlorobutane was added to induce the dehalogenase. After 24 hours induction, cells were harvested by centrifugation, resuspended in cold 10mM Tris sulfate/1 mM disodium EDTA, pH=7.5, and disrupted by sonication. Cell debris was removed by centrifugation at 10,000 rpm for 30 minutes, cell free extracts dialyzed overnight against the same buffer, and assayed without dilution for dehalogenase activity.
Free chloride or bromide was assayed qualitatively using a chloride electrode (Orion), or quantitatively using the colorimetric method (430 nm) described by J. G. Bergmann, et al., Anal. Chem., 29:241-243 (1957).
(§1) Hydrolytic dehalogenase enzyme activity was evaluated by adding an appropriate amount of cell free extract or enzyme preparation to 5.0 mL of 100 mM glycine buffer, pH=9.0 in a 7 mL glass vial. The halogenated substrate (5.0 μl) and a small stir bar were added, and the vial capped. Reaction was initiated by transfer to a 30° C. water bath equipped with a magnetic stirrer. Periodically 1.0 mL samples were removed and assayed for free halide. Rates were determined after correcting for non-enzymatic hydrolysis with an appropriate blank. A standard curve was prepared using sodium chloride.
Preliminary studies were performed on cell free extracts of TDTM-003 to evaluate the enzyme substrate selectivity, and the results of this study are shown in Table 2.

[2] = target: partially purified TDTM-003 dehalogenase (Rhodococcus sp. TDTM0003, UniProt P59336); assay: Substrate profile of partially purified TDTM-003 dehalogenase; assay type: biochemical, Rhodococcus species TDTM-003; settings: corrected for non-enzymatic hydrolysis
Procedure: as §1
Frozen pellets from 2 liters of culture were thawed into 150 mL of 10 mM Tris sulfate buffer, pH=7.5 containing 1 mM disodium EDTA. This buffer was used throughout the entire purification. The suspension was sonicated for approximately 1 hour with ice cooling using a Microson Ultrasonic Cell Disrupter and centrifuged at 10,000 rpm for 15 minutes to remove cell debris. Supernatant was removed and the sonication/centrifugation repeated with fresh buffer to increase enzyme yield. Overall sonication efficiency was monitored by absorbence at 280 nm. Cell free extracts were combined and brought slowly to 30 percent saturation with solid ammonium sulfate. The suspension was centrifuged at 10,000 rpm for 30 minutes and the pellet discarded. The supernatant was brought to 70 percent saturation with solid ammonium sulfate and centrifugation repeated. Supernatant was discarded and the pellet taken up in a small volume of buffer and dialyzed overnight against 1 liter of the same. The preparation was applied to a 1.5×15cm column of DEAE-Sephadex equilibrated with the same buffer elution carried out with a 1 liter gradient from 0 to 400 mM ammonium sulfate. Fractions of about 7-8 mLs were collected. The active fractions were pooled and brought to 90 percent saturation with ammonium sulfate. The pellet was taken up in a minimal amount of buffer, ultrafiltered to 2.5 mL using 10,000 MWCO Novacell Ultrafiltration cell, and applied to a 1.5×90 cm Sephadex G-100 column. Elution was by gravity at 90 cm and fractions of 7-8 mLs were collected. Active fractions were poled, brought to 30 percent saturation with ammonium sulfate, and applied to a 10 ml column of Butyl-agarose equilibrated in the same. Elution was performed with a 500 mL gradient from 30 percent-0 percent ammonium sulfate. Active fractions were pooled, dialyzed and used for substrate selectivity studies.
To evaluate the substrate selectivity of haloalkane dehalogenase from isolated Rhodococcus species, an enzyme preparation from the strain designated TDTM-003 was purified by the procedure described under General Experimental. This preparation provided a dehalogenase which was approximately 50 percent pure as estimated by SDS-PAGE and was free of interfering halohydrin dehalogenase activity.
The activity of this partially purified TDTM-003 dehalogenase preparation was evaluated against various chlorinated and brominated substrates. Each enzymatic rate was corrected for non-enzymatic hydroloysis.

partially purified TDTM-003 dehalogenase, sequence (P59336 whole entry): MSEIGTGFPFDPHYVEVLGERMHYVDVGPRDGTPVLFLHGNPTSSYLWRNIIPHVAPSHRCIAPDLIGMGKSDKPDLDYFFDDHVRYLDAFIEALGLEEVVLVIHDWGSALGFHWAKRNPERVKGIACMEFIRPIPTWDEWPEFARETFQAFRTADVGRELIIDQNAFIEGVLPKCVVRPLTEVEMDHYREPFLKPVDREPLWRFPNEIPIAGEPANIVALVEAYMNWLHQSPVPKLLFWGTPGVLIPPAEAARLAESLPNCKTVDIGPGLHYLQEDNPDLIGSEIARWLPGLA

| SMILES | Relative Rate of Chloride Release, 1-chlorobutane = 100 [1] | Relative Rate of Halogen Release, 1-Chlorobutane = 100 [2] |
| --- | --- | --- |
| CC(C)CCl [1-chloro-2-methylpropane] | 117 | – |
| CC(C)(Cl)CCl [1,2-dichloro-2-methylpropane] | 300 | 0.000 |
| CCCCCBr [1-bromopentane] | – | 203.000 |
| CC(Br)CBr (centres unmarked) [1,2-dibromopropane] | – | 900.000 |
| CCCCCCCCCCCl [1-chlorodecane] | – | 28.000 |
| CCCCCCBr [1-bromohexane] | – | 162.000 |
| CCC(C)Cl (centres unmarked) [2-chlorobutane] | 65 | 20.000 |
| CCCCCCCCBr [1-bromooctane] | – | 414.000 |
| BrCCCCCCBr [1,6-dibromohexane] | – | 244.000 |
| BrCCBr [1,2-dibromoethane] | – | 1318.000 |
| CC(C)Br [2-Bromopropane] | – | 55.000 |
| CCCCCCl [1-chloropentane] | 109 | 81.000 |
| ClCCCCCCCl [1,6-dichlorohexane] | 169 | 252.000 |
| CCCCl [1-chloropropane] | 57 | 33.000 |
| CCCBr [1-bromopropane] | – | 459.000 |
| CCCCCCCCCCBr [1-bromodecane] | – | 98.000 |

| SMILES | Relative Rate of Chloride Release, 1-chlorobutane = 100 [1] | Relative Rate of Halogen Release, 1-Chlorobutane = 100 [2] |
| --- | --- | --- |
| ClCCBr [1-bromo-2-chloroethane] | – | 751.000 |
| ClCCCl [1,2-dichloroethane] | 2.8 | 4.400 |
| ClCCCCCl [1,4-dichlorobutane] | 178 | 261.000 |
| CCCCCCCl [1-chlorohexane] | 136 | 119.000 |
| CC(C)(C)Cl [2-chloro-2-methylpropane] | 2917 | – |
| CC(C)(Cl)Cl [2,2-dichloropropane] | – | 23.000 |
| CCCCCl [1-chlorobutane] | 100 | 100.000 |
| CCC(C)Br (centres unmarked) [2-bromobutane] | – | 123.000 |
| BrCCCCCCCCBr [1,8-dibromooctane] | – | 173.000 |
| CC(Br)C(C)Br (centres unmarked) [2,3-dibromobutane] | – | 846.000 |
| ClC1CCCCC1 [chlorocyclohexane] | – | 7.500 |
| CC(Br)CCBr (centres unmarked) [1,3-dibromobutane] | – | 155.000 |
| BrCCCCBr [1,4-dibromobutane] | – | 294.000 |
| CCCCCCCCl [1-chloroheptane] | – | 130.000 |
| BrCCCBr [1,3-dibromopropane] | – | 771.000 |
| CCC(Br)CBr (centres unmarked) [1,2-dibromobutane] | – | 756.000 |
